Key:
DNA-PK(h) = DNA-PK(h) (Homo sapiens, UniProt P78527); assay: Evaluation of inhibitory activity against DNA-PK (HTRF kinase assay, GST-cMyc-p53 substrate); assay type: biochemical; details: for inhibition at 0.1 µM: compound at 0.1 μM, read-out: EXP_VALUE(% Inhibition) DNA-PK(h) 0.1 μM
Summary of the method: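 Human DNA-PK with 50 μM GST-cMyc-p53 substrate; reaction started with Mg/ATP, run 30 min at room temperature, stopped with EDTA. Phospho-Ser15 p53 detected by HTRF (Eu anti-phospho-Ser15, d2 anti-GST), signal = 10000×(Em 665/Em 620).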

[1] = target: PI3K-δ (PI3K(p1108/p857) (h)) (Homo sapiens, UniProt O00329); assay: Evaluation of inhibitory activity against PI3K-δ (HTRF kinase assay); assay type: biochemical; details: for inhibition at 0.1 µM: compound at 0.1 μM, read-out: EXP_VALUE(% Inhibition) PI3K-δ 0.1 μM
PI3K-δ (PI3K(p1108/p857) (h)), sequence (O00329 whole entry, the tested form may be a part): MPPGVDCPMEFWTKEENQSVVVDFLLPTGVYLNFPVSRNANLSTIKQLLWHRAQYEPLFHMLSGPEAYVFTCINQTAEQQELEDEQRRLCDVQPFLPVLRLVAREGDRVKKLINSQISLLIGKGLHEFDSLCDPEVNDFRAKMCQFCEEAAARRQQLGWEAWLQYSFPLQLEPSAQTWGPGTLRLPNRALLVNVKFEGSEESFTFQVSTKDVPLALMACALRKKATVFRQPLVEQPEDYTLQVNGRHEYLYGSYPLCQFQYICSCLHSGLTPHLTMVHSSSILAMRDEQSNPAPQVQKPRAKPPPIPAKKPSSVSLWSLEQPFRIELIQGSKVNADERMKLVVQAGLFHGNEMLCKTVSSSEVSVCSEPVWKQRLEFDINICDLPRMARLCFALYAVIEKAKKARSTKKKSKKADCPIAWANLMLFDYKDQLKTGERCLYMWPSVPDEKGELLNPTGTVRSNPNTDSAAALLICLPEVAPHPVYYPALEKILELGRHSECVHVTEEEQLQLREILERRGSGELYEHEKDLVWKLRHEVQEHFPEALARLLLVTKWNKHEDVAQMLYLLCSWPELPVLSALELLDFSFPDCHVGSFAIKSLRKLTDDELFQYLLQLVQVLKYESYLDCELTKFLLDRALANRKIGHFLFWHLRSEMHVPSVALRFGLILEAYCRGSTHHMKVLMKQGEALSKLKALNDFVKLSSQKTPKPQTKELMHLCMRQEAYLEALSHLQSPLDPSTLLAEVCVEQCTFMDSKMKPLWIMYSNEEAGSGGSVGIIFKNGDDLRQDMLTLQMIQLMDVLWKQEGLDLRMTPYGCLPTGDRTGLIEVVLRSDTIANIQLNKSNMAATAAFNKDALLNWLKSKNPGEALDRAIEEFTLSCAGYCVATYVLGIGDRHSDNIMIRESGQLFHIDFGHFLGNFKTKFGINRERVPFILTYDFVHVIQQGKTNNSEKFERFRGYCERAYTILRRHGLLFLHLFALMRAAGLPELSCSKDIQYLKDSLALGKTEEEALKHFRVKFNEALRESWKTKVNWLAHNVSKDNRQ
PI3K-δ (PI3K(p1108/p857) (h)), sequence (P27986 whole entry partner, the tested form may be a part): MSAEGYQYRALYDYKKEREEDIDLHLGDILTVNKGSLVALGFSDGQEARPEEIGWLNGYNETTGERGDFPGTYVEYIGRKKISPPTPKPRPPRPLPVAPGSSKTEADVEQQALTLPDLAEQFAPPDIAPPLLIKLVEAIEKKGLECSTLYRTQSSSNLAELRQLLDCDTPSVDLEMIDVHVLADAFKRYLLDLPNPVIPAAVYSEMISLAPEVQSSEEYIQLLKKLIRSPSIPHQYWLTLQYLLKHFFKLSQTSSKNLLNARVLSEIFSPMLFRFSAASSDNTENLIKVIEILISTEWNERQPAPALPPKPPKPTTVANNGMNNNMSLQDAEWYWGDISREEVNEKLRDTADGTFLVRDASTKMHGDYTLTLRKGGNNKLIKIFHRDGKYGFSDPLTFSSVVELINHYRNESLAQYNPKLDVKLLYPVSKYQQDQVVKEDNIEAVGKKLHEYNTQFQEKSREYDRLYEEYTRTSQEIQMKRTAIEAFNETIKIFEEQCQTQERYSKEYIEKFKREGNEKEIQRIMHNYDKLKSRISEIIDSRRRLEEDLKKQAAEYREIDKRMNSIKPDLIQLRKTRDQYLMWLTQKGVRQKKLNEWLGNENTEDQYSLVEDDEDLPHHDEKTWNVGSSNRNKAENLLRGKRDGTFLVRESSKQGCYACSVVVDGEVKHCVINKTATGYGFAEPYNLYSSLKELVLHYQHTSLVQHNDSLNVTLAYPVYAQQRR
Summary of the method: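 HTRF read-out (665/620 nm ratio ×10000) used Eu-labelled anti-GST, GST-tagged GRP1 PH domain and streptavidin-allophycocyanin after EDTA/PIP3 stop.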

C[C@H](Nc1ncnc2[nH]ccc(=O)c12)c1c(Cl)c2cccc(S(=O)(=O)C(C)(C)C)c2c(=O)n1-c1ccccc1 [Example 433, (S)-4-((1-(8-(tert-butylsulfonyl)-4-chloro-1-oxo-2-phenyl-1,2-dihydroisoquinolin-3-yl)ethyl)amino)pyrido[2,3-d]pyrimidin-5(8H)-one]
inhibition at 0.1 µM (DNA-PK(h)): 24% | inhibition at 0.1 µM [1]: 8%

CCSc1cccc2c(Cl)c([C@H](C)Nc3ncnc4[nH]ccc(=O)c34)n(-c3ccccc3)c(=O)c12 [Example 434, (S)-4-((1-(4-chloro-8-(ethylthio)-1-oxo-2-phenyl-1,2-dihydroisoquinolin-3-yl)ethyl)amino)pyrido[2,3-d]pyrimidin-5(8H)-one]
inhibition at 0.1 µM (DNA-PK(h)): 32% | inhibition at 0.1 µM [1]: 8%

CC[S@@](=N)(=O)c1cccc2c(Cl)c([C@H](C)Nc3ncnc4[nH]ccc(=O)c34)n(-c3ccccc3)c(=O)c12 [Example 435, 4-(((S)-1-(4-chloro-8-((R)-ethylsulfonimidoyl)-1-oxo-2-phenyl-1,2-dihydroisoquinolin-3-yl)ethyl)amino)pyrido[2,3-d]pyrimidin-5(8H)-one]
inhibition at 0.1 µM (DNA-PK(h)): 18% | inhibition at 0.1 µM [1]: 24%

CC[S@](=N)(=O)c1cccc2c(Cl)c([C@H](C)Nc3ncnc4[nH]ccc(=O)c34)n(-c3ccccc3)c(=O)c12 [Example 436, 4-(((S)-1-(4-chloro-8-((S)-ethylsulfonimidoyl)-1-oxo-2-phenyl-1,2-dihydroisoquinolin-3-yl)ethyl)amino)pyrido[2,3-d]pyrimidin-5(8H)-one]
inhibition at 0.1 µM (DNA-PK(h)): 9% | inhibition at 0.1 µM [1]: 7%

C[C@H](Nc1ncnc2[nH]ccc(=O)c12)c1c(Cl)c2cccc(Oc3cccnc3)c2c(=O)n1-c1ccccc1 [Example 437, (S)-4-((1-(4-chloro-1-oxo-2-phenyl-8-(pyridin-3-yloxy)-1,2-dihydroisoquinolin-3-yl)ethyl)amino)pyrido[2,3-d]pyrimidin-5(8H)-one]
inhibition at 0.1 µM (DNA-PK(h)): 53% | inhibition at 0.1 µM [1]: 33%

C[C@H](Nc1ncnc2[nH]ccc(=O)c12)c1c(Cl)c2cccc(-c3cnc(C4(O)CCC4)nc3)c2c(=O)n1-c1ccccc1 [Example 438, (S)-4-((1-(4-chloro-8-(2-(1-hydroxycyclobutyl)pyrimidin-5-yl)-1-oxo-2-phenyl-1,2-dihydroisoquinolin-3-yl)ethyl)amino)pyrido[2,3-d]pyrimidin-5(8H)-one]
inhibition at 0.1 µM (DNA-PK(h)): 64% | inhibition at 0.1 µM [1]: 87%

C[C@H](Nc1ncnc2[nH]ccc(=O)c12)c1c(Cl)c2cccc(C(=O)NCc3ccncc3)c2c(=O)n1-c1ccccc1 [Example 439, (S)-4-chloro-1-oxo-3-(1-((5-oxo-5,8-dihydropyrido[2,3-d]pyrimidin-4-yl)amino)ethyl)-2-phenyl-N-(pyridin-4-ylmethyl)-1,2-dihydroisoquinoline-8-carboxamide]
inhibition at 0.1 µM (DNA-PK(h)): 16% | inhibition at 0.1 µM [1]: 92%

C[C@H](Nc1ncnc2[nH]ccc(=O)c12)c1c(Cl)c2cccc(C(=O)Nc3ccccc3)c2c(=O)n1-c1ccccc1 [Example 440, (S)-4-chloro-1-oxo-3-(1-((5-oxo-5,8-dihydropyrido[2,3-d]pyrimidin-4-yl)amino)ethyl)-N, 2-diphenyl-1,2-dihydroisoquinoline-8-carboxamide]
inhibition at 0.1 µM (DNA-PK(h)): 16% | inhibition at 0.1 µM [1]: 92%

C[C@H](O)c1cccc2c(Cl)c([C@H](C)Nc3ncnc4[nH]ccc(=O)c34)n(-c3ccccc3)c(=O)c12 [Example 441, 4-(((S)-1-(4-chloro-8-((S)-1-hydroxyethyl)-1-oxo-2-phenyl-1,2-dihydroisoquinolin-3-yl)ethyl)amino)pyrido[2,3-d]pyrimidin-5(8H)-one]
inhibition at 0.01 µM (DNA-PK(h); compound at 0.01 μM, read-out: EXP_VALUE(% Inhibition) DNA-PK(h) 0.01 μM): 35% | inhibition at 0.01 µM ([1]; compound at 0.01 μM, read-out: EXP_VALUE(% Inhibition) PI3K-δ 0.01 μM): 54%

— patent US20230072683A1, “PYRIDO-PYRIMIDIN DERIVATIVES AND PHARMACEUTICAL COMPOSITION, FOR USE IN PREVENTING OR TREATING PI3 KINASE RELATED DISEASES, COMPRISING SAME AS ACTIVE INGREDIENT” (BORYUNG PHARMACEUTICAL CO., LTD, priority 2019, published 2023)
